Legend:
ADR5000 cell line [1] = experiment: Cytotoxicity against human CEM/ADR5000 cells over-expressing P-gp assessed as reduction in cell viability after 72 hrs by resazurin dye based assay; assay type: functional
Human betaherpesvirus 5 [2] = experiment: Antiviral activity against GFP-fused Human cytomegalovirus AD169 infected in primary HFF; assay type: functional, organism-based; settings: Human betaherpesvirus 5, AD169, HFF
CCRF-CEM = experiment: Cytotoxicity against human CCRF-CEM cells assessed as reduction in cell viability after 72 hrs by resazurin dye based assay; assay type: functional
ADR5000 cell line [3] = experiment: Potency index, ratio of doxorubicin EC50 to compound EC50 for human CEM/ADR5000 cells over-expressing P-gp; assay type: functional
Plasmodium falciparum [4] = experiment: Antimalarial activity against Plasmodium falciparum 3D7 infected in human erythrocytes after 72 hrs by SYBR green dye fluorescence assay; assay type: functional, organism-based; settings: 3D7, 72 h
Human betaherpesvirus 5 [5] = experiment: Potency index, ratio of gancyclovir EC50 to compound EC50 for GFP-fused Human cytomegalovirus AD169 infected in primary HFF; assay type: functional
Plasmodium falciparum [6] = experiment: Potency index, ratio of artesunic acid EC50 to compound EC50 for Plasmodium falciparum 3D7 infected in human erythrocytes; assay type: functional
[7] = Homo sapiens, ADR5000, 72 h, read-out: EC50
[8] = Homo sapiens, CCRF-CEM, 72 h, read-out: EC50

| SMILES | EC50 (ADR5000 cell line [1]; [7]) | EC50 (Human betaherpesvirus 5 [2]) | EC50 (CCRF-CEM; [8]) | Ratio EC50 (ADR5000 cell line [3]) | EC50 (ADR5000 cell line [1]; adr5000) | EC50 (Plasmodium falciparum [4]) | EC50 (CCRF-CEM; ccrf-cem) | Ratio EC50 (Human betaherpesvirus 5 [5]) | Ratio EC50 (Plasmodium falciparum [6]) |
| --- | --- | --- | --- | --- | --- | --- | --- | --- | --- |
| COc1cc(CCCOC(=O)CCC(=O)O[C@@H]2O[C@@H]3O[C@@]4(C)CC[C@H]5[C@H](C)CC[C@@H]([C@H]2C)[C@@]35OO4)cc2cc(-c3ccc4c(c3)OCO4)oc12 | 1120 nM | 870 nM | 180 nM | <=104 |  |  |  |  |  |
| COc1ccc(-c2cc3cc(CCCO)cc(OC)c3o2)cc1OC |  | 1280 nM |  |  | Not Active | 26500 nM | Not Active |  |  |
| COc1ccc(-c2cc3cc(CCCO[C@H]4O[C@@H]5O[C@@]6(C)CC[C@H]7[C@H](C)CC[C@@H]([C@H]4C)[C@@]57OO6)cc(OC)c3o2)cc1OC | 630 nM | 130 nM | 72 nM | <=104 |  | 6.5 nM |  | 20 |  |
| COc1cc(CCCO[C@H]2O[C@@H]3O[C@@]4(C)CC[C@H]5[C@H](C)CC[C@@H]([C@H]2C)[C@@]35OO4)cc2cc(-c3ccc4c(c3)OCO4)oc12 | 400 nM | 170 nM | 99 nM | <=104 |  | 28.3 nM |  |  |  |
| COc1cc(CCCOC(=O)C[C@H]2O[C@@H]3O[C@@]4(C)CC[C@H]5[C@H](C)CC[C@@H]([C@H]2C)[C@@]35OO4)cc2cc(-c3ccc4c(c3)OCO4)oc12 | 582 nM | 240 nM | 568 nM | <=104 |  | 13.3 nM |  |  |  |
| C[C@H]1[C@H](OC(=O)CCC(=O)OCC#CCOC(=O)CCC(=O)O[C@@H]2O[C@@H]3O[C@@]4(C)CC[C@H]5[C@H](C)CC[C@@H]([C@H]2C)[C@@]35OO4)O[C@@H]2O[C@@]3(C)CC[C@H]4[C@H](C)CC[C@@H]1[C@@]24OO3 |  | 940 nM |  |  |  | 3.8 nM |  | 6 | 2 |
| COc1cc(CC/C=N/C2=C(C)C(=O)C=C(C(C)C)C2=O)cc2cc(-c3ccc4c(c3)OCO4)oc12 | 17400 nM |  | 43700 nM | <=104 |  | 1190 nM |  |  |  |
| COc1cc(CCCOC(=O)CCCc2ccc(N(CCCl)CCCl)cc2)cc2cc(-c3ccc4c(c3)OCO4)oc12 |  | 2900 nM |  |  |  | 23200 nM |  |  |  |
| C[C@@H]1CC[C@H]2[C@@H](C)C(=O)O[C@@H]3O[C@@]4(C)CC[C@@H]1[C@]32OO4 [ARTEMISININ] | 26900 nM |  | 36900 nM |  |  |  |  |  |  |
| C[C@H]1[C@@H](O)O[C@@H]2O[C@@]3(C)CC[C@H]4[C@H](C)CC[C@@H]1[C@@]24OO3 [ARTENIMOL] | 265 nM | > 10000 nM | 85 nM |  |  | 2.4 nM |  |  |  |
| C[C@H]1[C@H](OC(=O)CCC(=O)O)O[C@@H]2O[C@@]3(C)CC[C@H]4[C@H](C)CC[C@@H]1[C@@]24OO3 [ARTESUNATE] | 189 nM | 5410 nM | 69 nM |  |  | 9.7 nM |  |  |  |
| CCN(CC)CCCC(C)Nc1ccnc2cc(Cl)ccc12 (stereo unspecified) [CHLOROQUINE] |  |  |  |  |  | 9.8 nM |  |  |  |
| COc1cccc2c1C(=O)c1c(O)c3c(c(O)c1C2=O)C[C@@](O)(C(=O)CO)C[C@@H]3O[C@H]1C[C@H](N)[C@H](O)[C@H](C)O1 [DOXORUBICIN] | 41500 nM |  | 15 nM |  |  |  |  |  |  |
| COc1cc(CCCO)cc2cc(-c3ccc4c(c3)OCO4)oc12 [EGONOL] | 26800 nM | 2380 nM | 24700 nM |  |  | 7500 nM |  |  |  |
| Nc1nc2c(ncn2COC(CO)CO)c(=O)[nH]1 [GANCICLOVIR] |  | 2600 nM |  |  |  |  |  |  |  |
| CC1=CC(=O)C(C(C)C)=CC1=O [THYMOQUINONE] | 300 nM | > 10000 nM | 300 nM |  |  | > 80000 nM |  |  |  |
